The data set deals with CCRIS mutagenicity, Ames/micronucleus/aberration tests. The data set can be described thus: CCRIS mutagenicity studies.
Setting [1] is: Test System: AMES SALMONELLA TYPHIMURIUM, Strain/Indicator: TA98, Metabolic Activation: RAT, LIVER, S-9, AROCLOR 1254, Method: PREINCUBATION

The structures appear in SMILES notation. Activity calls are given as the source filed them. The rule behind the calls is not given here.

`Cc1cccn2c1nc1ccc(N)nc12`: the mutagenic call runs as follows: (Test System: AMES SALMONELLA TYPHIMURIUM, Strain/Indicator: TA98, Metabolic Activation: MOUSE, LIVER, MICROSOMES, TCDD, Method: STANDARD PLATE) “active; positive”; (Test System: AMES SALMONELLA TYPHIMURIUM, Strain/Indicator: TA98, Metabolic Activation: MOUSE, LIVER, MICROSOMES, Method: STANDARD PLATE) “active; positive”; (Test System: AMES SALMONELLA TYPHIMURIUM, Strain/Indicator: TA98, Metabolic Activation: RAT LIVER, CYTOSOL, AROCLOR 1254, Method: STANDARD PLATE) “inactive; negative”; (Test System: AMES SALMONELLA TYPHIMURIUM, Strain/Indicator: TA98, Metabolic Activation: RAT LIVER, MICROSOMES, AROCLOR 1254, Method: STANDARD PLATE) “active; positive”; (Test System: AMES SALMONELLA TYPHIMURIUM, Strain/Indicator: TA98, Metabolic Activation: RAT, LIVER, MICROSOMES, 1-METHYLCHRYSENE, Method: PREINCUBATION) “active; positive”; (Test System: AMES SALMONELLA TYPHIMURIUM, Strain/Indicator: TA98, Metabolic Activation: RAT, LIVER, MICROSOMES, 2-METHYLCHRYSENE, Method: PREINCUBATION) “active; positive”. The mutagenic call is “active; positive” (Test System: AMES SALMONELLA TYPHIMURIUM, Strain/Indicator: TA98, Metabolic Activation: RAT, LIVER, MICROSOMES, 3-METHYLCHRYSENE, Method: PREINCUBATION); “active; positive” (Test System: AMES SALMONELLA TYPHIMURIUM, Strain/Indicator: TA98, Metabolic Activation: RAT, LIVER, MICROSOMES, 4-METHYLCHRYSENE, Method: PREINCUBATION); “active; positive” (Test System: AMES SALMONELLA TYPHIMURIUM, Strain/Indicator: TA98, Metabolic Activation: RAT, LIVER, MICROSOMES, 5-METHYLCHRYSENE, Method: PREINCUBATION); “active; positive” (Test System: AMES SALMONELLA TYPHIMURIUM, Strain/Indicator: TA98, Metabolic Activation: RAT, LIVER, MICROSOMES, 6-AMINOCHRYSENE, Method: PREINCUBATION); “active; positive” (Test System: AMES SALMONELLA TYPHIMURIUM, Strain/Indicator: TA98, Metabolic Activation: RAT, LIVER, MICROSOMES, 6-METHYLCHRYSENE, Method: PREINCUBATION); “active; positive” (Test System: AMES SALMONELLA TYPHIMURIUM, Strain/Indicator: TA98, Metabolic Activation: RAT, LIVER, MICROSOMES, BENZO[B]CHRYSENE, Method: PREINCUBATION). The mutagenic call is “active; positive” (Test System: AMES SALMONELLA TYPHIMURIUM, Strain/Indicator: TA98, Metabolic Activation: RAT, LIVER, MICROSOMES, BENZO[C]CHRYSENE, Method: PREINCUBATION); “active; positive” under setting [1]; “active; positive” (Test System: AMES SALMONELLA TYPHIMURIUM, Strain/Indicator: TA100, Metabolic Activation: RAT, LIVER, S-9, AROCLOR 1254, Method: PREINCUBATION); “active; positive” (Test System: AMES SALMONELLA TYPHIMURIUM, Strain/Indicator: TA1538, Metabolic Activation: RAT, LIVER, MICROSOMES, 2-ACETYLAMINOFLUORENE, Method: STANDARD PLATE); “active; positive” (Test System: AMES SALMONELLA TYPHIMURIUM, Strain/Indicator: TA1538, Metabolic Activation: RAT, LIVER, MICROSOMES, 4-ACETYLAMINOFLUORENE, Method: STANDARD PLATE); “active; positive” (Test System: AMES SALMONELLA TYPHIMURIUM, Strain/Indicator: TA1538, Metabolic Activation: RAT, LIVER, MICROSOMES, Method: STANDARD PLATE). Besides, the mutagenic call by setting is: (Test System: AMES SALMONELLA TYPHIMURIUM, Strain/Indicator: YG1012, Metabolic Activation: RAT, LIVER, S-9, PHENOBARBITAL AND 5,6-BENZOFLAVONE, Method: PREINCUBATION) “active; positive”; (Test System: AMES SALMONELLA TYPHIMURIUM, Strain/Indicator: YG1019, Metabolic Activation: RAT LIVER S-9, AROCLOR, Method: PREINCUBATION) “active; positive”; (Test System: AMES SALMONELLA TYPHIMURIUM, Strain/Indicator: YG1019, Metabolic Activation: RAT, LIVER, S-9, PHENOBARBITAL AND 5,6-BENZOFLAVONE, Method: PREINCUBATION) “active; positive”; (Test System: AMES SALMONELLA TYPHIMURIUM, Strain/Indicator: YG1020, Metabolic Activation: RAT, LIVER, S-9, PHENOBARBITAL AND 5,6-BENZOFLAVONE, Method: PREINCUBATION) “active; positive”; (Test System: AMES SALMONELLA TYPHIMURIUM, Strain/Indicator: YG1024, Metabolic Activation: RAT, LIVER, S-9, PHENOBARBITAL AND 5,6-BENZOFLAVONE, Method: PREINCUBATION) “active; positive”; (Test System: AMES SALMONELLA TYPHIMURIUM, Strain/Indicator: YG1025, Metabolic Activation: RAT, LIVER, S-9, PHENOBARBITAL AND 5,6-BENZOFLAVONE, Method: PREINCUBATION) “active; positive”. Further, the mutagenic call (Test System: AMES SALMONELLA TYPHIMURIUM, Strain/Indicator: YG1029, Metabolic Activation: RAT, LIVER, S-9, PHENOBARBITAL AND 5,6-BENZOFLAVONE, Method: PREINCUBATION) was “active; positive”; the mutagenic call (Test System: UDS HUMAN HEPATOCYTES, Strain/Indicator: THY INCORP, Metabolic Activation: NONE, Method: AUTORADIOGRAPHY) is “active; positive”; the mutagenic call (Test System: UDS MOUSE HEPATOCYTES, Strain/Indicator: THY INCORP, Metabolic Activation: NONE, Method: AUTORADIOGRAPHY) was “active; positive”; the mutagenic call (Test System: UDS RAT HEPATOCYTES, Strain/Indicator: THY INCORP, Metabolic Activation: NONE, Method: AUTORADIOGRAPHY) was “inactive; negative”.

Consider `CCn1c(N)nc2c3cccnc3ccc21`, for which the mutagenic call under setting [1] is “active; positive”.

Take `CC(=O)OC[C@@]1(O)CC23CC[C@@H]4c5ccoc5C=C[C@@]4(C)[C@@H]2CC[C@@H]1C3`: the mutagenic call was “inactive; negative” (Test System: AMES SALMONELLA TYPHIMURIUM, Strain/Indicator: TM677, Metabolic Activation: NONE, Method: PREINCUBATION) and “inactive; negative” (Test System: AMES SALMONELLA TYPHIMURIUM, Strain/Indicator: TM677, Metabolic Activation: RAT, LIVER, S-9, AROCLOR 1254, Method: PREINCUBATION).

The values above are taken from PubChem BioAssay AID1259407 (Chemical Carcinogenesis Research Information System (CCRIS), 2018).
